SMILES strings stand for the structures. Where two headings read alike, the source gives them in different places.

The record followed here is patent US20260259169A1, “BETA-LACTAMASE SUBSTRATE COMPOUNDS AND ELECTROCHEMICAL DETECTION METHODS USING THEM” (priority 2023, published 2026).

The target of one data set is KPC (Klebsiella pneumoniae, UniProt Q9F663). The experiment in a line: Amperometric measurement of oxidation current with KPC in TPTZ buffer. The data set is classed as biochemical. The note with it: for detection of the beta-lactamases (oxidation current): KPC concentrations detected: succinate buffer pH 5.5, KPC 239.4, 59.85, 9.975 and 4.985 ng/ml; for detection of the beta-lactamases (oxidation current): KPC concentrations detected / detection of the lowest tested concentration of KPC / detection of the highest concentration of KPC / detection of the beta-lactamase concentration of 9.975 ng/mL: 30 minutes at 37° C.; for detection of the lowest tested concentration of KPC / detection of the highest concentration of KPC: 6.0 mM substrate; for detection of the lowest tested concentration of KPC: KPC 59.85 ng/ml; for detection of the highest concentration of KPC: KPC 239.4 ng/ml; for detection of the beta-lactamase concentration of 9.975 ng/mL: KPC 9.975 ng/mL. On the procedure: A medium comprising 1.2 mM of substrate in a succinate buffer of pH 5.5 was prepared for each of the 8 beta-lactamase substrate compounds (7 inventive ones and the HMRZ-86 reference one).
4 different samples to be analyzed were prepared, each comprising KPC as beta-lactamase in a standard 2,4,6-tri-2-pyridinyl-1,3,5-triazine (TPTZ) buffer but in different concentrations: 239.4, 59.85, 9.975 and 4.985 ng/ml (ng of KPC per mL of TPTZ buffer). The two first concentrations of KPC aim to determine the capacity of the derivative to detect the presence of beta-lactamase whereas the two lowest concentrations aim to address the limit of detection.
Each of the […] (in other words 32 combinations) and incubated for 30 minutes at 37° C. Next, an amperometric measurement was performed on all 32 of the incubated mediums, and the oxidation current was determined. The device used was a Metrohm Dropsens and the electrodes were Metrohm Dropsens SCPE 110 electrodes. The oxidation current is the maximum current value measured between 0.1 V and 0.5 V vs. Ag/AgCl.
To test the impact of the concentration of the beta-lactamase substrate compound on the possibility to detect beta-lactamases, a further medium comprising 2.4 mM of the beta-lactamase substrate compound with R being 2-nitro-4-cyanophenyl was prepared. […] The same four beta-lactamase concentrations as in Example 1 were tested (i.e. the same samples). The incubation and measurement were performed as in Example 1.
A medium comprising 6.0 mM of each substrate in a succinate buffer of pH 5.5 was prepared. 2 different samples to be analyzed were prepared, each comprising KPC as beta-lactamase type in a standard 2,4,6-tri-2-pyridinyl-1,3,5-triazine (TPTZ) buffer, but in different concentrations: 239.4 ng/ml and 59.85 ng/ml, respectively (ng of KPC per mL of TPTZ buffer). Each of the […] was added to each of the 2 mediums (in other words 6 combinations) and incubated for 30 minutes at 37° C. Next, an amperometric measurement was performed on all 6 of the incubated mediums, and the oxidation current was determined. The equipment used was the same as that of Example 1.

For data set [1], the system named is bacteria strains that produce KPC/OXA-48. The experiment in a line: Amperometric detection in blood culture. The note with it: 2.4 mM versus HMRZ-86 1.2 mM. The format is cell-based. On the procedure: (§1) The possibility of the beta-lactamase substrate compounds to detect bacteria strains producing different beta-lactamases was tested for the reference HMRZ-86 of example 1 (at 1.2 mM) and the beta-lactamase substrate compound with R being 2-nitro-4-cyano of Example 1 (at 2.4 mM). […] Consequently, amperometric voltammetry of the negative control with ATCC should give an oxidation current of 0 nA for the measurement to be valid.

In data set [2] the test system is bacteria strains that produce VIM type. Kind of data set: Amperometric detection in blood culture. The data set is classed as cell-based. The note with it: 2.4 mM versus HMRZ-86 1.2 mM. As for the experimental part: as §1
The beta-lactamase with group β being CF3 (6.0 mM), as well as the reference HMRZ-86 (1.2 mM) were also tested with blood cultures comprising bacteria strains producing the carbapenemase KPC type, the metallo-beta-lactamase VIM type and the metallo-beta-lactamase NDM type, as well as a blood culture comprising no bacteria strains producing beta-lactamases (negative control ATCC).

The nature of data set [3]: NMR stability study in relation to a 22 mM succinate buffer reference. The format is physicochemical. On the procedure: (§2) The stability of the beta-lactamase substrate compounds over time at different temperatures was tested the reference HMRZ-86 of example 1 (at 1.2 mM) and the beta-lactamase substrate compound with R being 2-nitro-4-cyano of Example 1 (at 2.4 mM).
The stability of both beta-lactamase substrate compounds was also tested in relation to a 22 mM succinate buffer reference. […] Contrary to the dimethylformamide (DMF) reference, the degradation in relation to the succinate buffer was similar for both substrate compounds, with the first degradation starting after 2 weeks at both temperatures.

A short description of data set [4]: NMR stability study in relation to a dimethylformamide (DMF) reference. The format is physicochemical. As for the experimental part: More particularly, when the degradation is determined by means of NMR measurements, a first sample comprising the beta-lactamase substrate compound according to the present disclosure and a second sample comprising the reference, e.g. DMF, are heated or cooled to a predefined temperature, after which the NMR measurement is performed on both samples (measurement at time=0). The same measurement is repeated on the samples after a predefined time (time=x), while their temperature is kept constant at the predefined temperature from time=0 to time=x. The difference of the integration of NMR measurement signals of both samples is determined by comparing between time=0 and time=x, thereby allowing to define the degree (percentage) of degradation of the beta-lactamase substrate compound at time=x.
as §2
The stability was tested by a NMR stability study. The degradation was measured by measuring the evolution of the integration of NMR measurement signals of the molecule in relation to a dimethylformamide (DMF) reference. The stability of the beta-lactamase substrate compound is expressed by the percentage of degradation in function of time.
The stability of all 3 beta-lactamase substrate compounds (R being 4-cyanophenyl, group β being H, CH3 and CF3, respectively), as well as the beta-lactamase having the same group R and a group β according to formula II was tested at 20° C. in DMF as reference.

The next data set has as its system CTXM. The experiment in a line: Amperometric detection of beta-lactamase type producing bacteria strains. The data set is classed as cell-based. The note with it: 6.0 mM substrate, HMRZ-86 1.2 mM; qualitative. As for the experimental part:
(§3) The possibility to detect different beta-lactamase type producing bacteria strains was also tested. As reference, a reference medium comprising 1.2 mM beta-lactamase substrate compound HMRZ-86 was prepared as well.

In the next data set the test system is OXA-40. The data set is described as above. The conditions noted are these: 6.0 mM substrate, HMRZ-86 1.2 mM; qualitative. The format is cell-based. As for the experimental part:
as §3

Another data set has as its system OXA-48. The description is as above. The data set is classed as cell-based. The conditions noted are these: 6.0 mM substrate, HMRZ-86 1.2 mM; qualitative. As for the experimental part: as §3
Another data set has as its system OXA-58. The description is as above. The format is cell-based. The conditions noted are these: 6.0 mM substrate, HMRZ-86 1.2 mM; qualitative. On the procedure:
as §3

With `CC(C)(ON=C(C(=O)NC1C(=O)N2C(C(=O)O)=C(C=Cc3ccc(C#N)cc3[N+](=O)[O-])CSC12)c1csc(N)n1)C(=O)O` (stereo not drawn) [2-nitro-4-cyano], the “detection of the beta-lactamases (oxidation current): KPC concentrations detected” value on KPC (1.2 mM substrate) is on record as “all 4 concentrations”. For the same compound, the “oxidation current compared with 1.2 mM HMRZ-86 reference” value at KPC (2.4 mM substrate, 4 KPC concentrations) is on record as “in line with these of the 1.2 mM HMRZ-86 reference”. Besides, on KPC (2.4 mM substrate, KPC 239.4 and 59.85 ng/ml), the “oxidation current compared with 1.2 mM HMRZ-86 reference, 2 highest beta-lactamase concentrations” value is listed as “higher than the reference”. Besides, the “oxidation current on increasing the substrate concentration” value on KPC (2.4 mM versus 1.2 mM substrate, 4 KPC concentrations) is reported as “significantly increases the oxidation current”. Also, the “oxidation current compared with HMRZ-86” value in data set [1] and in data set [2] was “significantly higher” each time. Also, the “time at which the first degradation starts” value in [3] (4° C.) and in data set [3] (20° C.) was 2 weeks in each case.
On to `CC(C)(ON=C(C(=O)NC1C(=O)N2C(C(=O)O)=C(C=Cc3ccc(C#N)cc3)CSC12)c1csc(N)n1)C(=O)O` (stereo not drawn) [4-cyanophenyl], for which the “oxidation current, compared among R groups with a single moiety at the para-position” value at KPC (1.2 mM substrate, 4 KPC concentrations, FIG. 2) was “highest oxidation currents”. Moreover, the degradation result in data set [4] (20° C., up to 26 weeks, DMF reference) was “no signs of degradation”.
Consider `N#Cc1ccc(C=CC2=C(C(=O)O)N3C(=O)C(NC=O)C3SC2)cc1` (stereo not drawn) [H], for which, on KPC, the “detection of the lowest tested concentration of KPC” value is “capable to detect”. Further, the “detection of the highest concentration of KPC” value at KPC is “capable to detect”. Further, the “detection (oxidation current)” value in the data set on CTXM, in the data set with OXA-40, with OXA-48 and in the data set on OXA-58 was “capable of detecting” in each case. Further, in data set [4], the “time of first signs of degradation” value is 13 weeks.
Regarding `CC(C)(ON=C(C(=O)NC1C(=O)N2C(C(=O)O)=C(C=Cc3ccc(C#N)cc3C#N)CSC12)c1csc(N)n1)C(=O)O` (stereo not drawn) [2,4-dicyano], the “detection of the beta-lactamases (oxidation current): KPC concentrations detected” value on KPC (1.2 mM substrate) was “only the 2 highest concentrations were detected”.
For the compound `CC(=O)NC1C(=O)N2C(C(=O)O)=C(C=Cc3ccc(C#N)cc3)CSC12` (stereo not drawn) [CH3], the “detection of the lowest tested concentration of KPC” value on KPC is “only the “H” and “CF3” groups are capable to detect the lowest tested concentration”. The “detection of the highest concentration of KPC” value on KPC is “capable to detect”. Moreover, the “detection (oxidation current)” value in the data set on CTXM, in the data set with OXA-40, in the data set on OXA-48 and in the data set with OXA-58 was “detect OXA-48 type only” throughout. In data set [4] (20° C., DMF reference, up to 26 weeks), the “time of first signs of degradation” value came out at 1 weeks.
As for `CC(C)(ON=C(C(=O)NC1C(=O)N2C(C(=O)O)=C(C=Cc3cc([N+](=O)[O-])cc([N+](=O)[O-])c3)CSC12)c1csc(N)n1)C(=O)O` (stereo not drawn) [3,5-dinitrophenyl], on KPC (1.2 mM substrate), the “detection of the beta-lactamase concentration of 9.975 ng/mL” value is on record as “this was not the case”.
For `CC(C)(ON=C(C(=O)NC1C(=O)N2C(C(=O)O)=C(C=Cc3ccc([N+](=O)[O-])c([N+](=O)[O-])c3)CSC12)c1csc(N)n1)C(=O)O` (stereo not drawn) [3,4-dinitrophenyl], the “detection of the beta-lactamase concentration of 9.975 ng/mL” value on KPC (1.2 mM substrate) is given as “could detect”.
